Laboratory results as given in patent publication US20130085469A1, “TAUROLIDINE FORMULATIONS AND DELIVERY: THERAPEUTIC TREATMENTS AND ANTIMICROBIAL PROTECTION AGAINST BACTERIAL BIOFILM FORMATION” (priority 2004, published 2013).
Where two headings read alike, the source gives them in different places.

Key:
[1] = system: Planktonic form of bacteria; details: cited from earlier work
bacteria [2] = details: cited from earlier work
Burkholderia cepacia = details: delivered to the lung via a nebulizer; cited from earlier work
[3] = cited from earlier work
[4] = in vivo; cited from earlier work
[5] = system: clinically significant bacterial strains and some important fungi; details: published test results; cited from earlier work
[6] = over several years at room temperature; cited from earlier work
typical bacteria [7] = test: Minimum bactericidal concentration (MBC); assay type: cell-based
[8] = 30 g/day infused; cited from earlier work
[9] = Diffusion through silicone rubber catheter wall; assay type: physicochemical; details: silicone rubber 2 mm ID, 0.5 mm wall, filled with water, 2% Taurolidine bath, UV-Vis
Description: 4. Taurolidine is a small molecule able to pass through human skin as well as through polymeric materials passively by diffusion which is driven by a concentration gradient. Experiments were conducted to determine if Taurolidine is able to diffuse through silicone rubber at a rate sufficient to achieve clinical significance. The experiment was conducted with a HD catheter-sized silicone rubber (i.e., 2 mm ID and 0.5 mm wall thickness). This was filled with water and capped off. It was immersed in a 2% Taurolidine bath. Within 3 days the inner volume equilibrated with the Taurolidine bath. The sensing instrument was a UV-Vis spectrometer.

[10] = system: resistant Burkholderia cepacia; details: isolates from adult cystic fibrosis patients; cited from earlier work
[11] = system: infection from HD catheters; details: 2 controlled studies; cited from earlier work
typical bacteria [12] = details: cited from earlier work
[13] = cited from earlier work; remark: listed apart in the source
bacteria [14] = details: 25 years of clinical use and many in-vitro tests; cited from earlier work
[15] = Pharmacokinetics, central blood values after IV dose; assay type: in vivo; details: human, corresponds to first time constant 0.3
Source text: (§1) FIG. 1 illustrates the clearance of a typical antibiotic in the blood stream. It is a typical power decay curve after drug administration. Table 3 lists important variables which determine the biocidal effect on bacteria in the blood stream. The 5 factors in the upper portion of the table define the characteristics for Vancomycin, a typical antibiotic, and the characteristics for Taurolidine. Lower in the table is the portion called Surrogate Markers. These markers are Pharmacokinetic/Pharmacodynamic (PK/PD) values calculated from the concentration profiles in the body for specifics sites and drugs to guide therapy. The derived parameters have been estimated for Vancomycin (see FIG. 1, which is average values defined in the drug label with data obtained from human trials). Taurolidine Markers have been obtained from various literature sources. The Markers are useful in predicting antimicrobial drug efficacy in infection eradication. Of course, the values of the PK/PD parameters must be for the specific bacteria causing the infection and for the specific body site.
Kinetic parameters from Steinbach et al.^28 and infusion data from Willatts et al.^27 were used for the calculation. Taurolidine diffuses rapidly and body water concentration is equivalent to the plasma water concentration. […]

[16] = Max tolerated dose and max potential delivery; assay type: in vivo; details: calculated in footnote a
Source text: as §1

## O=S1(=O)CCN(CN2CCS(=O)(=O)NC2)CN1 [Taurolidine, 4,4′ Methlyen-bis(tetrahydro-2H-1,4-thiadiazin-1,1dioxide)]
[1]
  exposure to achieve killing action: Planktonic form of bacteria requires approximately 2 hours
Bacteria [2]
  concentration needed to show minimum effectiveness: > 0.05%
  lower end range for MIC: approximately 0.5 mg/mL
Burkholderia cepacia
  reduction in bacterial load: failure to achieve a significant reduction in bacterial load in most patients
[3]; cell adds: Not applicable for Taurolidine
  Peak Plasma Concentration (CP): 150 μg/ml^28
[3]; first value of 70/140, footnote b, time const 0.57
  T1/2 (Drug Half Life in Blood): ~70 min
[3]; second value of 70/140, footnote b, first time constant 0.3
  T1/2 (Drug Half Life in Blood): ~140 min
[4]
  concentration producing pain in most tissue on contact: ≥ 10000 µg/mL
  pain on direct contact with most tissue: Direct contact with most tissue causes intense pain
[5]
  broad spectrum antimicrobial effect: Effective against substantially all clinically significant
[6]
  stability in powder or aqueous solution: Taurolidine in powder or aqueous solution is stable
Typical bacteria [7]
  MBC relative to antibiotics: Taurolidine has an approximate 1000 times higher
[8]
  benefit of Taurolidine infusion in sepsis syndrome: No benefits
  decremental effect of Taurolidine infusion: not shown any statistically significant decremental effect
[9]
  time for inner volume to equilibrate with the Taurolidine bath: ≤ 3 days
[10]
  in vitro response: positive response
[11]
  reduction in infection compared to conventional heparin lock: ~2 controlled studies resulted in approximately 95%
Typical bacteria [12]
  MBC: MBC than antibiotics. (i.e., MBC of 2 mg/ml vs. 2 ug/ml
[13]
  Max Tolerated Dose: >30 g/day^27
Bacteria [14]
  bacterial resistance: 1. No Bacterial Resistance
[15]
  half-life: ~2.3 h

## CN[C@H](CC(C)C)C(=O)N[C@H]1C(=O)N[C@@H](CC(N)=O)C(=O)N[C@H]2C(=O)N[C@H]3C(=O)N[C@H](C(=O)N[C@H](C(=O)O)c4cc(O)cc(O)c4-c4cc3ccc4O)[C@H](O)c3ccc(c(Cl)c3)Oc3cc2cc(c3O[C@@H]2O[C@H](CO)[C@@H](O)[C@H](O)[C@H]2O[C@H]2C[C@](C)(N)[C@H](O)[C@H](C)O2)Oc2ccc(cc2Cl)[C@H]1O [Vancomycin]
Bacteria [2]
  MIC (Minimum Inhibitory Concentration): <4 μg/mL^29
[3]; average values from drug label, FIG. 1
  Peak Plasma Concentration (CP): 50 µg/mL
[3]
  T1/2 (Drug Half Life in Blood): ~7 hours^30
[16]
  Max Tolerated Dose: >5 g/day (See footnote a)
